Laboratory results as given in patent US7884115B2, “Methods and compositions for the treatment of pain and other neurological conditions” (Allergan, Inc., priority 2004, dated 2011).

Experiments:
chronic pain = experiment: Mouse and rat models of chronic pain (summary statement); format: in vivo
[1] = system: allodynia induced by sulprostone; experiment: Mouse sulprostone model of allodynia; format: in vivo; details: up to 1 mg/kg, 15 min before sulprostone 300 ng/kg IP, FIG. 3
Procedure: In this alternative model of chronic pain, allodynia can be induced in mice through intraperitoneal treatment of the animals with 300 ng/kg sulprostone (prostaglandin E2 receptor agonist) in 50% DMSO and in a volume of 5 μl. In this model, the pain response to stroking the flank with a paint brush is scored 8 times over a 35 minute period starting 15 minutes following spinal administration of sulprostone. Minami et al., 57 Pain 217-223 (1994), hereby incorporated by reference herein. Sulprostone treatment alone elicits a score of 12-13 on a 16-point scale.
In either model, the compounds are formulated in d-H2O and given in a volume of 1 ml/kg body weight for intraperitoneal (IP) dosing.
Six mice per group are rendered allodynic by injection of one of the following agents: 300 ng/kg sulprostone in DMSO IP, 100 ng/kg phenylephrine (PE) in dH2O IP, or 100 ng NMDA in DMSO intrathecally (IT). Fifteen minutes before administration of the allodynia-inducing agents, the experimental mice are given 1 mg/kg NB-DNJ. Thirty (30) minutes following administration of NB-DNJ, the allodynic response is monitored as described by brushing the flank of each mouse with a paint brush.
Five to six mice per group are rendered allodynic by injection of 300 ng/kg sulprostone IP. Fifteen minutes before inducement of an allodynic response, experimental mice are given one of the following: 1 mg/kg, 300 μg/kg, and 100 μg/kg NB-DNJ; 1 mg/kg N-butyldeoxymannojirimycin; 1 mg/kg N-5-carboxy-1-deoxynojirimycin; 1 mg/kg N-dodecyldeoxynojirimycin; 1 mg/kg N-ethyl-1-deoxynojirimycin; 1 mg/kg, 300 μg/kg, and 30 μg/kg D-glucaro-delta-lactam; 1 mg/kg 4-O-a-D-glucopyranosylmoranoline; 1 mg/kg nojirimycin bisulfite; 1 mg/kg nojirimycin-1-sulfonic acid; 1 mg/kg N-(n-nonyl)deoxynojirimycin; 1 mg/kg N(7-oxadecyl)deoxynojirimycin; and 1 mg/kg N-(7-oxa-9,9,9-trifluorononyl)deoxynojirimycin. The DMSO vehicle and sulprostone alone are used as controls.
Starting thirty (30) minutes following administration of NB-DNJ, the allodynic response of each mouse was monitored by brushing the flank of the mouse with a paint brush.
Five to six mice per group are rendered allodynic by injection of one of the following: 300 ng/kg sulprostone IP, 100 ng/kg phenylephrine (PE) IP, or 100 ng NMDA intrathecally (IT). Fifteen minutes prior to the induction of allodynia, the mice are given D-glucaro-delta-lactam IP at […], or 1 mg/kg. PE or NMDA-treated mice are given 1 mg/kg D-glucaro-delta-lactam IP.

[2] = system: primary rat brain cortical neurons treated with kainate; experiment: Kainate-induced excitotoxicity in primary cortical neurons (LDH release); format: cell-based; details: cortical cell cultures; FIGS. 9A, 9B and 9C
Procedure: (§1) Primary rat brain cortical neurons were cultured as follows. In brief, rat cerebral cortices were removed from brains of the 16 day-old-fetal rats. The neocortices were gently triturated and plated on 24 well plates (300,000 viable cells/cm2) in plating Modified Eagle's Medium (MEM) supplemented with 10% horse serum, 10% fetal calf serum and 2 mM L-glutamine. Cultures were maintained at 37 C in a humidified 5% CO2 atmosphere.
(§2) After 4 days' growth (DIV 4), half of the medium was replaced by a medium identical to the plating medium but lacking calf serum. At DIV4, 10 μM 5-fluoro-2-deoxyuridine was included to each well to halt overgrowth of glia. Mixed cultures of neurons and glia were then fed at DIV7 and DIV11 with MEM plus 5% horse serum previously conditioned by growth with cortical astrocytes for 24 h.
Excitotoxicity was induced in these cells by addition of 50 μM kainate or 20 μM N-methyl-D-aspartate plus 10 μM D-serine to each well.
(§3) Under the experimental conditions used, i.e. after 6 hours addition of excitotoxic agent, 40% toxicity is generally observed and measured by determination of the amount of lactate dehydrogenase (LDH) released into the medium following membrane degradation. Such assay methods are well-known; a kit for conducting a homogeneous form of the LDH assay format is sold by Promega under the name CytoTox ONE® Homogenous Membrane Integrity Assay. Overall cell injury was assessed microscopically under phase-contrast optics or by measuring amount of LDH released into the bathing medium 24 hr after neurotoxic insults (see, e.g., Koh and Choi, J. NEUROSCI. METHODS 20: 83-90, 1987), hereby incorporated by reference herein.
[…] The final results are normalized optical density (OD) values (treated cells/untreated control cells), where a value of 1 represents 100% neuronal survival and a value of 0.6 represents 60% survival.

[3] = system: primary rat brain cortical neurons treated with NMDA plus D-serine; experiment: NMDA/serine-induced excitotoxicity in primary cortical neurons (LDH release); format: cell-based; details: NMDA/serine-treated cells, 3 h or 16 h preincubation; FIGS. 10A and 10B
Procedure: as §1
as §2, with “h. […]” for “h.”
as §3, with “Such assay methods are well-known; a kit for conducting a homogeneous form of the LDH assay format is sold by Promega under the name CytoTox ONE® Homogenous Membrane Integrity Assay.” left out, “herein. […]” for “herein.”

[4] = system: allodynia induced by N-methyl-D-aspartate (NMDA); experiment: Mouse NMDA model of allodynia; format: in vivo; details: 3 mg/kg, 15 min before 200 ng NMDA IT, FIG. 2
Procedure: In variants of this model, allodynia can be induced using 100 ng N-methyl-D-aspartate (NMDA) in DMSO intrathecally, or IP phenylephrine (PE) 100 ng/kg formulated in dH2O. In either model, the compounds are formulated in d-H2O and given in a volume of 1 ml/kg body weight for intraperitoneal (IP) dosing. Six mice per group are rendered allodynic by injection of one of the following agents: 300 ng/kg sulprostone in DMSO IP, 100 ng/kg phenylephrine (PE) in dH2O IP, or 100 ng NMDA in DMSO intrathecally (IT). Fifteen minutes before administration of the allodynia-inducing agents, the experimental mice are given 1 mg/kg NB-DNJ. Thirty (30) minutes following administration of NB-DNJ, the allodynic response is monitored as described by brushing the flank of each mouse with a paint brush. Six mice per group are given one of the following: given 100 μg/kg NB-DNJ, 300 μg/kg NB-DNJ, 1 mg/kg NB-DNJ, or 3 mg/kg 1-deoxynojirimycin. After 15 minutes the mice are rendered allodynic by injection of 200 ng NMDA in DMSO IT. Starting thirty (30) minutes following administration of NB-DNJ, the allodynic response of each mouse is monitored by brushing the flank of the mouse with a paint brush. Five to six mice per group are rendered allodynic by injection of one of the following: 300 ng/kg sulprostone IP, 100 ng/kg phenylephrine (PE) IP, or 100 ng NMDA intrathecally (IT). Fifteen minutes prior to the induction of allodynia, the mice are given D-glucaro-delta-lactam IP at […], or 1 mg/kg. PE or NMDA-treated mice are given 1 mg/kg D-glucaro-delta-lactam IP.

SMILES: CCCCN1C[C@H](O)[C@@H](O)[C@@H](O)[C@H]1CO [NB-DGJ, N-butyldeoxygalactonojirimycin]
- activity in models of chronic pain (chronic pain): not to be active

SMILES: CCN1C[C@H](O)[C@@H](O)[C@H](O)[C@H]1CO [N-ethyldeoxynojirimycin, N-ethyl-1-deoxynojirimycin]
- attenuation of the allodynic response (analgesic activity) [1]: attenuate the allodynic response

SMILES: OC[C@H]1NC[C@H](O)[C@@H](O)[C@@H]1O [DNJ, 1-deoxynojirimycin]
- protection against kainate induced toxicity [2]: about 50%
- neuroprotective effect [3]: no neuroprotective effect
- analgesic activity [4]: not analgesic
